Molecular target: T1, ABCB1 (Homo sapiens, UniProt P08183)
T1 construct: ABCB1 in membrane vesicles from High Five insect cells
Experiment: vanadate-sensitive ATPase assay in membrane vesicles
Type: biochemical

T1 sequence (P08183 whole entry): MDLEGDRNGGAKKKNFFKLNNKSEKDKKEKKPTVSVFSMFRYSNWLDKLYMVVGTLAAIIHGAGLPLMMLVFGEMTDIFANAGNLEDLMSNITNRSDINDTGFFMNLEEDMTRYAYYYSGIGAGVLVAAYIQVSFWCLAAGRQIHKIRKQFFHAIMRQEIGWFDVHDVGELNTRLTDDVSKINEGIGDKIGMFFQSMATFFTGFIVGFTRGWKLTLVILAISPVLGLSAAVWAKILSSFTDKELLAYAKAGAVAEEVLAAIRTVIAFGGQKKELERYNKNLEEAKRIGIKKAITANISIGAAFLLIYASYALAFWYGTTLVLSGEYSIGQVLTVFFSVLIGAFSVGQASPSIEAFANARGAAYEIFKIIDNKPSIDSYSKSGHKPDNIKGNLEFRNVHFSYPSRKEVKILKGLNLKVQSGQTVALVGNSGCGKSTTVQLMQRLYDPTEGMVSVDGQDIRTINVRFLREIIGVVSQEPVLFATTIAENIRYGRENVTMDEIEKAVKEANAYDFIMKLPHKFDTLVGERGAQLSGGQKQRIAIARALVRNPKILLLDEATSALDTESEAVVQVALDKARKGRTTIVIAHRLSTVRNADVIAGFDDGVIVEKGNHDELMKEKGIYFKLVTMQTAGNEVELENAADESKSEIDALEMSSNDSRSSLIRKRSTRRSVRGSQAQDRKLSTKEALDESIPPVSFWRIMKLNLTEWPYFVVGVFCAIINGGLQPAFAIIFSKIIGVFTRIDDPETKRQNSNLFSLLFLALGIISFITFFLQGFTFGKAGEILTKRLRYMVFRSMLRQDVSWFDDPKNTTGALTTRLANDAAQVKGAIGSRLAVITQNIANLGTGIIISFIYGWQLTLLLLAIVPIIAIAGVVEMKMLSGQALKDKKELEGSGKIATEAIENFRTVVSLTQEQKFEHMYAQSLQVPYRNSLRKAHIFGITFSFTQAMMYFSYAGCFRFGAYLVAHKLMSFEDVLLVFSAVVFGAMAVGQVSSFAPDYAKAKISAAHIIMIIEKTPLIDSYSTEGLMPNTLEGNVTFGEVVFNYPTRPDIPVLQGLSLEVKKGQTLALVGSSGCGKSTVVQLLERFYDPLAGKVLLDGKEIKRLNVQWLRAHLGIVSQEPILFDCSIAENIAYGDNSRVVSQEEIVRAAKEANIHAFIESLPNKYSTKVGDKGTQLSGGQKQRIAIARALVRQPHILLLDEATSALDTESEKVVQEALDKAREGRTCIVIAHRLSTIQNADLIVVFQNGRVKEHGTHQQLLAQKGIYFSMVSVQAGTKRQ

CCn1c(=O)c(-c2ccc(Cl)cc2Cl)cc2cnc(Nc3ccc(N4CCNCC4)c(F)c3)nc21 [FRAX486]
IC50: 20 nM
